Test results: patent publication US20020058077A1, “Cancer chemotherapeutical and chemopreventive agent” (priority 2000, published 2002)
*1 amine or outer side, *2 acyl side, *3 side chain or, on linkers, in order; H or OH if unused. Where a SMILES comes first, the peptide text is derived from it. Bridges are numbered along the chain shown (N, C = ends). Roman numbers before positions name the chains, in order. [ ]: non-standard residue; d: D form. Actinocin(9to1) = Cc1c2oc3c(C)ccc(C(=O)[*:1])c3nc-2c(C(=O)[*:2])c(N)c1=O; NMeV = CN[C@H](C(=O)O)C(C)C; Sar = CNCC(=O)O

How the values were obtained:
COX-2 [1] = assay: RT-PCR analysis of COX-2 mRNA in TNF-α treated CNE1 cells; details: Act D 5 μg/ml × 30 min; TNF-α 15 ng/ml × 6 h
Description: (§1) TNF-α (final concentration 15 ng/ml) was used as the positive stimulus to promote NF-κB activation in cultured cells.
RNA extraction was carried out using a total RNA extraction kit (TRIzol, Life Technologies). Briefly, cells were collected by scrapping after various treatments and washed with cold PBS once before they were lysed in the TRIzol reagent. […] Finally the RNA samples were dissolved in DEPC-H2O and quantified (1 A260=40 μg/ml). Five micrograms of total RNA from each sample were subjected to reverse transcription using Superscript II reverse transcriptase (Life Technologies) in a total volume of 50 μl. For PCR, all the amplification reactions were carried out in 20 μl which included 200 pmol of each primers, 200 μM of each dNTPs, and 0.5 units of DyNAzyme II. The PCR was performed for 30 cycles, using a program of 95° C. for 30 sec, 57° C. for 30 sec, and 72° C. for 30 sec, followed by a 10 min extension at 72° C., in a Biometra T-gradient Thermal Cycler. […] The PCR conditions were optimised to achieve exponential amplification in which the PCR product formation is proportional to the starting cDNA.

CNE1 cells = details: for apoptotic cell death in TNF-α treated cells after pretreatment: PDTC 25 μM, Act D 5 μg/ml, CHX 5 μg/ml or NS398 10 μM × 30 min
Description: as §1
Apoptosis was determined by the following assays: (i) cell morphological alterations examined under an inverted microscope, (ii) PARP cleavage determined by western blot, and (iii) TUNEL assay which was analysed using both flow cytometry and confocal microscope (Shen et al., 2000), in both attached and detached cells after various treatments.

COX-2 [2] = assay: COX-2 protein level in TNF-α treated CNE1 cells by western blot; details: CHX 5 μg/ml × 30 min; TNF-α 15 ng/ml × 24 h
Description: as §1
Various cell extracts (cytosolic, nuclear or whole cell) were prepared as described earlier. Equal amounts (30 μg) of protein were separated on SDS-polyacrylamide gel in the Mini-PROTEAN II system (Bio-Rad). After electrophoresis, the protein was transferred onto a Hybond-C nitrocellulose membrane (Amersham) at 4° C. using the Mini Trans-Blot Module (Bio-Rad). The membrane was blocked overnight with 5% nonfat milk in TBST (10 mM Tris-HCl, pH 7.5, 100 mM NaCl, 0.1% Tween 20), and then incubated with various primary antibodies for 2 h at room temperature. After 5 washes with TBST, the membrane was exposed to respective secondary antibodies for 1 h. The blots were detected using the enhanced chemiluminescence method (Pierce).

NF-κB = NF-κB luciferase reporter gene assay in transfected CNE1 cells; format: cell-based, human; details: PDTC 25 μM, Act D 5 μg/ml or CHX 5 μg/ml × 30 min; TNF-α 15 ng/ml × 24 h; order PDTC <Act D <CHX
Description: The pNF-κB-luc vector and the negative control pTAL-luc vector were purchased as part of the Mercury Pathway Profiling Luciferase System from Clontech Laboratories. […] The transient transfection of the above plasmids into cultured CNE1 cells were performed using TransFast™ Transfection Reagent (Promega) according to the manufacturer's protocol. Briefly, when cells reached about 80% confluence in 24-well plates (approximately 10×10^4 cells per well in 0.5 ml culture medium), the growth medium from each well was removed by aspiration. […] After incubated for 1 h at 37° C., 300 μl of prewarmed complete medium was added into each well and incubated for 24 h. Transfected cells were then subjected to various treatments. The luciferase activity was measured in the cellular extracts using a luciferase assay kit (Promega). Following the treatment, the cell lysate was collected from each well after the addition of 1× cell culture lysis reagent (50 μl/well, Promega). The relative light units (RLU) were then determined in a luminometer (Lumi-one, Trans Orchid, Tampa, Fla.) for a total period of 15 sec after a 5 sec delay time.

PGE2 production = assay: PGE2 level released from CNE1 cells by enzyme immunoassay (EIA); format: cell-based, human
Description: The PGE2 level in the cell culture medium after various treatments was determined using an EIA kit (Cayman) according to protocol from the manufacturer. Each sample was assayed at two dilutions and each dilution in triplets. The results were presented as the fold of increase comparing to that of the control group.

[3] = Act D 5 μg/ml × 30 min pretreatment, then TNF-α 15 ng/ml × 24 h

Cc1c2oc3c(C)ccc(C(=O)N[C@@H]4C(=O)N[C@H](C(C)C)C(=O)N5CCC[C@H]5C(=O)N(C)CC(=O)N(C)[C@@H](C(C)C)C(=O)O[C@@H]4C)c3nc-2c(C(=O)N[C@@H]2C(=O)N[C@H](C(C)C)C(=O)N3CCC[C@H]3C(=O)N(C)CC(=O)N(C)[C@@H](C(C)C)C(=O)O[C@@H]2C)c(N)c1=O [Act D, actinomycin D] (I: T[dV]P[Sar][NMeV] / II: T[dV]P[Sar][NMeV]; ester I:1-I:C, II:1-II:C; linker I:N-II:N via Actinocin(9to1))
COX-2 mRNA level (COX-2 [1]): markedly reduced
PARP cleavage (CNE1 cells; [3]): complete cleavage
detached apoptotic cells (CNE1 cells; [3]): ~100%
apoptotic cell death in TNF-α treated cells after pretreatment (CNE1 cells; then TNF-α 15 ng/ml × 24 h): severe apoptosis

C[C@@H]1C[C@@H]([C@H](O)CC2CC(=O)NC(=O)C2)C(=O)[C@@H](C)C1 [CHX, cycloheximide]
apoptotic cell death in TNF-α treated cells after pretreatment (CNE1 cells; then TNF-α 15 ng/ml × 24 h): severe apoptosis
COX-2 protein level (COX-2 [2]): Significant reduction
NF-κB dependent transcription (luciferase) (NF-κB): capable of inhibiting

CS(=O)(=O)Nc1ccc([N+](=O)[O-])cc1OC1CCCCC1 [NS398]
apoptotic cell death in TNF-α treated cells after pretreatment (CNE1 cells; then TNF-α 15 ng/ml × 24 h): significantly enhanced
apoptosis induction compared with parthenolide (CNE1 cells; TNF-α treated CNE1 cells): less effective
PGE2 production (PGE2 production; NS398 10 μM × 30 min, TNF-α 15 ng/ml × 24 h): completely abolished
potency for the inhibition of PGE2 production compared with parthenolide (PGE2 production; TNF-α treated CNE1 cells): higher potency
